The results in this text go back to patent publication US10822366B2, “Lincosamide derivatives, preparation and use thereof as antimicrobial agent” (MIKROBIOLOGICKY USTAV AV CR, V. V. I., priority 2017, dated 2020).

Molecules are shown by their SMILES. Converted amounts (≈) assume the structure as drawn.

Assay [1] concerns K. rhizophila. Nature of the assay: Minimum inhibitory concentration determination (EUCAST method). The settings on record: K. rhizophila in LB medium, concentration range 25-1600 nM tested, 24 h at 37° C. The assay is classed as cell-based, Kocuria rhizophila. As for the experimental part: Minimum inhibitory concentrations were determined using the previously published method (European Committee for Antimicrobial Susceptibility Testing (EUCAST), Clin Microbiol Infect (2003), 9 (8), ix-xv). 5 μL suspension (McFarland scale 0.5) of K. rhizophila bacterial culture was inoculated into 1 mL of LB medium containing test substances of the desired concentration (a concentration range of 25-1600 nM was tested). The cultures were incubated for 24 h at 37° C.

The subject of assay [2] is Kocuria rhizophila. Nature of the assay: Disc diffusion test (antibacterial activity). The assay is classed as cell-based. The settings on record: paper discs (diameter 5 mm) saturated with 5 nmol compound; LB agar covered with lincomycin sensitive test strain Kocuria rhizophila; 37° C., 20 h. As for the experimental part: Filtration paper discs (geometric diameter 5 mm) saturated with 5 nmol of tested novel lincosamide compounds were placed on LB agar plates (tryptone 10 g, yeast extract 5 g, NaCl 10 g, supplemented with distilled water to 1000 mL, pH 7.5; agar 15 g) continuously covered with culture of the lincomycin sensitive test strain Kocuria rhizophila. The plates were incubated at 37° C. for 20 h.
Background: A growth-free zone around the sample is the usual read-out of agar diffusion tests.

A word on the MIC: it is the smallest concentration in the dilution series that meets the test's criterion for growth inhibition. With `CCC[C@@H]1C[C@@H](C(=O)N[C@@H]([C@H]2O[C@H](SCCOC(=O)c3ccccc3O)[C@H](O)[C@@H](O)[C@H]2O)[C@@H](C)OC)N(C)C1`, the minimal inhibitory concentration (MIC) in assay [1] (Kocuria rhizophila) was 0.1 µM (≈ 0.0571 µg/mL). The “Disc diffusion test: size of inhibition zones” value in assay [2] was determined as 28 mm.
In the same order, the values of `CCC[C@@H]1C[C@@H](C(=O)N[C@@H]([C@H]2O[C@H](SCCOC(=O)c3ccccc3O)[C@H](O)[C@@H](O)[C@H]2O)[C@@H](C)O)N(C)C1` are 0.1 µM (≈ 0.0557 µg/mL) and 29 mm.
`CO[C@H](C)[C@@H](NC(=O)[C@@H]1CCCN1C)[C@H]1O[C@H](SCCOC(=O)c2ccccc2O)[C@H](O)[C@@H](O)[C@H]1O` [Celesticetin] came in with a minimum inhibitory concentration (MIC) in assay [1] of 1.6 µM (≈ 0.846 µg/mL). Moreover, the “Disc diffusion test: size of inhibition zones” value in assay [2] is reported as 19 mm.
On to `CCC[C@@H]1C[C@@H](C(=O)N[C@@H]([C@H]2O[C@H](SC)[C@H](O)[C@@H](O)[C@H]2O)[C@@H](C)O)N(C)C1` [Lincomycin], for which, in assay [1], the minimal inhibitory concentration (MIC) was found to be 0.4 µM (≈ 0.163 µg/mL). Besides, the “Disc diffusion test: size of inhibition zones” value in assay [2] stood at 24 mm.
